Experimental data as given in US20130184272A1, “DIABETES THERAPEUTIC AGENT” (TAKEDA PHARMACEUTICAL COMPANY LIMITED, priority 2010, published 2013).

Assays:
C2C12 cell = assay: Sugar metabolism promoting activity in muscle cell (lactic acid production); assay type: cell-based, Mouse; details: Mus musculus, 48 h; compound 1 μM, 2 days, C2C12 myotubes; without drug = 100%; read-out: lactic acid production promoting action (%)
Method: • (1) In the same manner as in Example 1, C2C12 cell was cultured in a growth medium. After reaching subconfluence of not less than 90%, the medium was exchanged with a differentiation medium and the cells were cultured for about 7 days while exchanging the medium every 2 or 3 days until the cells differentiated to form a myotube. • (2) After confirmation of myotube formation under a microscope, the test compound (1 μM) was added to a differentiation medium and cultured for 2 days. The cells were washed with Krebs-Ringer HEPES phosphate buffer (10 mM HEPES, pH 7.4, 131 mM NaCl, 4.7 mM KCl, 2.5 mM CaCl2—2H2O, 1.2 mM MgSO4—7H2O, 1.2 mM KH2PO4), the medium was exchanged with Krebs-Ringer HEPES phosphate buffer added with 5 mM glucose, 0.2% fatty acid-free bovine serum albumin, and cultured at 37° C. for 4 hr. • (3) The lactic acid concentration of the culture supernatant was measured using Detarminer LA kit (Kyowa Medex Co., Ltd.).
The numerical values in Table 2 show the concentration of the compound addition group with the concentration of lactic acid without addition of a drug as 100%.

[1] = test system: Mouse-derived myoblast line C2C12 cell; assay: Cell differentiation promoting activity in myoblast (creatine kinase activity); assay type: cell-based; details: Mus musculus, C2C12, 48 h, 2 days, without compound = 100%, read-out: creatine kinase activating action (%); for activity at 1 µM: compound at 1 μM; for activity at 0.01 µM: compound at 0.01 μM (**)
Method: • (1) Mouse-derived myoblast line C2C12 cell (Dainippon Pharmaceutical Co., Ltd.) was subcultured in a high glucose Eagle's modified Dulbecco's medium (GIBCO) added with 10% calf fetal bovine serum (GIBCO), 100 unit/mL penicillin and 100 μg/mL streptomycin (hereinafter to be referred to as a growth medium), plated at 5000 cells/cm^2 and cultured at 37° C., under 5% CO2. • (2) When the cells reached subconfluence of not less than 90%, the medium was exchanged with high glucose Eagle's modified Dulbecco's medium (GIBCO) added with (i) 2% horse serum (GIBCO) and (ii) penicillin, streptomycin and a test compound (hereinafter to be referred to as a differentiation medium) and the cells were cultured for 2 days. To the control group was added DMSO solution instead of the test compound. • (3) The cells were washed with PBS, 0.5% NP-40 solution was added, and the cells were lysed by freeze-thawing. The cell extract was centrifuged and the creatine kinase activity in the supernatant was measured as an index of muscle differentiation. The creatine kinase activity was measured using CPKII Test Wako (Wako Pure Chemical Industries, Ltd.) according to the manual of the kit.
The numerical values in Table 1 show creatine kinase activity of the compound addition group when the creatine kinase activity without addition of the compound is 100%, and * means measurement with addition of the compound at 10 μM, ** at 0.01 μM, and others at 1 μM.

Q: What does the source list for `Cn1ncc2c1-c1c(Oc3ccc(S(C)(=O)=O)cc3)sc(C(N)=O)c1CC2` [Ref. Ex. 19, 1-methyl-8-[4-(methylsulfonyl)phenoxy]-4,5-dihydro-1H-thieno[3,4-g]indazole-6-carboxamide]?
A: activity at 1 µM (C2C12 cell): 209%; activity at 1 µM [1]: 183%

Q: Which results are given for `CN(C)c1cccc(Oc2sc(C(N)=O)c3c2-c2c(cnn2C)CC3)c1` [Ref. Ex. 26, 8-[3-(dimethylamino)phenoxy]-1-methyl-4,5-dihydro-1H-thieno[3,4-g]indazole-6-carboxamide]?
A: activity at 1 µM (C2C12 cell): 175%; activity at 1 µM [1]: 156%

Q: With `Cn1ncc2c1-c1c(Oc3ccc(OCc4ccc5ccccc5n4)cc3)sc(C(N)=O)c1CC2` [Ref. Ex. 10, 1-methyl-8-[4-(quinolin-2-ylmethoxy)phenoxy]-4,5-dihydro-1H-thieno[3,4-g]indazole-6-carboxamide] as the compound, how does the activity at 1 µM (C2C12 cell) read?
A: 259%

Q: And the activity at 0.01 µM [1]?
A: 193%

Q: For `Cc1cccc(Oc2sc(C(N)=O)c3c2-c2c(cnn2C)CC3)n1` [Ref. Ex. 38, 1-methyl-8-[(6-methylpyridin-2-yl)oxy]-4,5-dihydro-1H-thieno[3,4-g]indazole-6-carboxamide], which activity at 1 µM (C2C12 cell) is on record?
A: 157%

Q: And the activity at 1 µM [1]?
A: 152%

Q: How did the activity at 1 µM (C2C12 cell) turn out when `COCCOc1ccc(Oc2sc(C(N)=O)c3c2-c2c(cnn2C)CC3)cn1` [Ref. Ex. 42, 8-{[6-(2-methoxyethoxy)pyridin-3-yl]oxy}-1-methyl-4,5-dihydro-1H-thieno[3,4-g]indazole-6-carboxamide] was run?
A: 319%

Q: What about the activity at 0.01 µM [1] of the same compound?
A: 179%

Q: `Cn1ncc2c1-c1c(Cc3ccccc3)sc(C(N)=O)c1CC2` [Ref. Ex. 16, 8-benzyl-1-methyl-4,5-dihydro-1H-thieno[3,4-g]indazole-6-carboxamide] was tested. Which activity at 1 µM (C2C12 cell) did it give?
A: 194%

Q: And the activity at 0.01 µM [1]?
A: 150%

Q: Which activity at 1 µM (C2C12 cell) does the source give for `Cn1ncc2c1-c1c(Oc3ccc(OCc4ccccn4)cc3)sc(C(N)=O)c1CC2` [Ref. Ex. 27, 1-methyl-8-[4-(pyridin-2-ylmethoxy)phenoxy]-4,5-dihydro-1H-thieno[3,4-g]indazole-6-carboxamide] here?
A: 198%

Q: And the activity at 0.01 µM [1]?
A: 163%

Q: What does the source list for `Cn1ncc2c1-c1c(Oc3ccc(C[C@H](N)C(=O)N4CCOCC4)cc3)sc(C(N)=O)c1CC2` [Ref. Ex. 25, 8-{4-[(2S)-2-amino-3-morpholin-4-yl-3-oxopropyl]phenoxy}-1-methyl-4,5-dihydro-1H-thieno[3,4-g]indazole-6-carboxamide]?
A: activity at 1 µM (C2C12 cell): 235%; activity at 1 µM [1]: 180%

Q: Which results are given for `Cn1ncc2c1-c1c(Oc3cccnc3OCCN3CCCC3=O)sc(C(N)=O)c1CC2` [Ref. Ex. 40, 1-methyl-8-({2-[2-(2-oxopyrrolidin-1-yl)ethoxy]pyridin-3-yl}oxy)-4,5-dihydro-1H-thieno[3,4-g]indazole-6-carboxamide]?
A: activity at 1 µM (C2C12 cell): 120%; activity at 1 µM [1]: 120%

Q: How did the activity at 1 µM (C2C12 cell) turn out when `Cn1ncc2c1-c1c(OCc3ccncc3)sc(C(N)=O)c1CC2` [Ref. Ex. 5, 1-methyl-8-(pyridin-4-ylmethoxy)-4,5-dihydro-1H-thieno[3,4-g]indazole-6-carboxamide] was run?
A: 124%

Q: What about the activity at 1 µM [1] of the same compound?
A: 113%

Q: `Cn1ncc2c1-c1c(Oc3ccc4c(c3)OCO4)sc(C(=O)NCc3ccncc3)c1CC2` [Ref. Ex. 28, 8-(1,3-benzodioxol-5-yloxy)-1-methyl-N-(pyridin-4-ylmethyl)-4,5-dihydro-1H-thieno[3,4-g]indazole-6-carboxamide] was tested. Which activity at 1 µM (C2C12 cell) did it give?
A: 170%

Q: What about the activity at 1 µM [1] of the same compound?
A: 186%

Q: With `Cn1ncc2c1-c1c(Oc3ccc4ncccc4c3)sc(C(N)=O)c1CC2` [Ref. Ex. 18, 1-methyl-8-(quinolin-6-yloxy)-4,5-dihydro-1H-thieno[3,4-g]indazole-6-carboxamide] as the compound, how does the activity at 1 µM (C2C12 cell) read?
A: 220%

Q: What about the activity at 0.01 µM [1] of the same compound?
A: 160%

Q: `Cn1ncc2c1-c1c(OC3CCCC3)sc(C(N)=O)c1CC2` [Ref. Ex. 17, 8-(cyclopentyloxy)-1-methyl-4,5-dihydro-1H-thieno[3,4-g]indazole-6-carboxamide] was tested. Which activity at 1 µM (C2C12 cell) did it give?
A: 141%

Q: What about the activity at 1 µM [1] of the same compound?
A: 177%

Q: With `Cn1ncc2c1-c1c(Oc3ccc(CC(=O)O)cc3)sc(C(N)=O)c1CC2` [Ref. Ex. 24, {4-[(6-carbamoyl-1-methyl-4,5-dihydro-1H-thieno[3,4-g]indazol-8-yl)oxy]phenyl}acetic acid] as the compound, how does the activity at 1 µM (C2C12 cell) read?
A: 126%

Q: What about the activity at 1 µM [1] of the same compound?
A: 142%

Q: What does the source list for `NC(=O)c1sc(Oc2ccccc2)c2c1CCc1cn[nH]c1-2` [Ref. Ex. 20, 8-phenoxy-4,5-dihydro-1H-thieno[3,4-g]indazole-6-carboxamide]?
A: activity at 1 µM (C2C12 cell): 167%; activity at 1 µM [1]: 121%

Q: What does the source list for `Cn1ncc2c1-c1c(Oc3ccc(OCc4ccncc4)cc3)sc(C(N)=O)c1CC2` [Ref. Ex. 23, 1-methyl-8-[4-(pyridin-4-ylmethoxy)phenoxy]-4,5-dihydro-1H-thieno[3,4-g]indazole-6-carboxamide]?
A: activity at 1 µM (C2C12 cell): 252%; activity at 0.01 µM [1]: 191%

Q: Which activity at 1 µM (C2C12 cell) does the source give for `COc1ccc(Oc2sc(C(N)=O)c3c2-c2c(cnn2C)CC3)cn1` [Ref. Ex. 35, 8-[(6-methoxypyridin-3-yl)oxy]-1-methyl-4,5-dihydro-1H-thieno[3,4-g]indazole-6-carboxamide] here?
A: 228%

Q: And the activity at 0.01 µM [1]?
A: 192%

Q: Which results are given for `CCCOc1sc(C(N)=O)c2c1-c1c(cnn1C)CC2` [Ref. Ex. 3, 1-methyl-8-propoxy-4,5-dihydro-1H-thieno[3,4-g]indazole-6-carboxamide]?
A: activity at 1 µM (C2C12 cell): 170%; activity at 1 µM [1]: 179%

Q: What does the source list for `COCCOc1sc(C(N)=O)c2c1-c1c(cnn1C)CC2` [Ref. Ex. 4, 8-(2-methoxyethoxy)-1-methyl-4,5-dihydro-1H-thieno[3,4-g]indazole-6-carboxamide]?
A: activity at 1 µM (C2C12 cell): 239%; activity at 1 µM [1]: 138%

Q: For `CN(C)c1sc(C(N)=O)c2c1-c1c(cnn1C)CC2` [Ref. Ex. 36, 8-(dimethylamino)-1-methyl-4,5-dihydro-1H-thieno[3,4-g]indazole-6-carboxamide], which activity at 1 µM (C2C12 cell) is on record?
A: 211%

Q: And the activity at 1 µM [1]?
A: 139%

Q: With `Cn1ncc2c1-c1c(Oc3cnc4ccccc4c3)sc(C(N)=O)c1CC2` [Ref. Ex. 30, 1-methyl-8-(quinolin-3-yloxy)-4,5-dihydro-1H-thieno[3,4-g]indazole-6-carboxamide] as the compound, how does the activity at 1 µM (C2C12 cell) read?
A: 260%

Q: And the activity at 0.01 µM [1]?
A: 166%

Q: Which activity at 1 µM (C2C12 cell) does the source give for `Cn1ncc2c1-c1c(Oc3ncccn3)sc(C(N)=O)c1CC2` [Ref. Ex. 37, 1-methyl-8-(pyrimidin-2-yloxy)-4,5-dihydro-1H-thieno[3,4-g]indazole-6-carboxamide] here?
A: 255%

Q: And the activity at 1 µM [1]?
A: 129%

Q: With `Cn1ncc2c1-c1c(Oc3ccc4c(c3)OCO4)sc(C(N)=O)c1CC2(C)C` [Ref. Ex. 29, 8-(1,3-benzodioxol-5-yloxy)-1,4,4-trimethyl-4,5-dihydro-1H-thieno[3,4-g]indazole-6-carboxamide] as the compound, how does the activity at 1 µM (C2C12 cell) read?
A: 264%

Q: And the activity at 1 µM [1]?
A: 183%

Q: Which results are given for `Cn1ncc2c1-c1c(Oc3cccnc3N)sc(C(N)=O)c1CC2` [Ref. Ex. 32, 8-[(2-aminopyridin-3-yl)oxy]-1-methyl-4,5-dihydro-1H-thieno[3,4-g]indazole-6-carboxamide]?
A: activity at 1 µM (C2C12 cell): 295%; activity at 1 µM [1]: 101%

Q: Which results are given for `COc1cccc(Oc2sc(C(N)=O)c3c2-c2c(cnn2C)CC3)c1` [Ref. Ex. 21, 8-(3-methoxyphenoxy)-1-methyl-4,5-dihydro-1H-thieno[3,4-g]indazole-6-carboxamide]?
A: activity at 1 µM (C2C12 cell): 184%; activity at 0.01 µM [1]: 198%

Q: What does the source list for `CNC(=O)c1sc(Oc2ccccc2)c2c1CCc1cnn(C)c1-2` [Ref. Ex. 6, N,1-dimethyl-8-phenoxy-4,5-dihydro-1H-thieno[3,4-g]indazole-6-carboxamide]?
A: activity at 1 µM (C2C12 cell): 187%; activity at 1 µM [1]: 164%

Q: Which results are given for `Cn1ncc2c1-c1c(S(=O)(=O)c3ccc4c(c3)OCO4)sc(C(N)=O)c1CC2` [Ref. Ex. 39, 8-(1,3-benzodioxol-5-ylsulfonyl)-1-methyl-4,5-dihydro-1H-thieno[3,4-g]indazole-6-carboxamide]?
A: activity at 1 µM (C2C12 cell): 207%; activity at 1 µM [1]: 176%

Q: Which results are given for `Cc1ccc(Oc2sc(C(N)=O)c3c2-c2c(cnn2C)CC3)cn1` [Ref. Ex. 31, 1-methyl-8-[(6-methylpyridin-3-yl)oxy]-4,5-dihydro-1H-thieno[3,4-g]indazole-6-carboxamide]?
A: activity at 1 µM (C2C12 cell): 253%; activity at 0.01 µM [1]: 150%

Q: `Cn1ncc2c1-c1c(Nc3ccccc3)sc(C(N)=O)c1CC2` [Ref. Ex. 12, 1-methyl-8-(phenylamino)-4,5-dihydro-1H-thieno[3,4-g]indazole-6-carboxamide] was tested. Which activity at 10 µM ([1]; compound at 10 μM (*)) did it give?
A: 162%
